Paper PMC11052825 (Clinical Pharmacokinetics, 2024)
Where two headings read alike, the source gives them in different places.

How the values were obtained:
[1] = Risk categorization of statins for coadministration with encorafenib; details: qualitative, from metabolic and transporter profile
CYP2B6 and CYP3A4 = details: strong inducer of CYP2B6 and CYP3A4; cited from earlier work
CYP2B6 [2] = format: in vivo, Human
OATP1B1 [3] = target: T1, OATP1B1 (Homo sapiens, UniProt Q9Y6L6); experiment: Maximum fold change of plasma CP-I in phase 3 safety lead-in participants; format: in vivo; details: SLI phase, encorafenib 300 mg QD + cetuximab
T1 sequence (Q9Y6L6 1-691): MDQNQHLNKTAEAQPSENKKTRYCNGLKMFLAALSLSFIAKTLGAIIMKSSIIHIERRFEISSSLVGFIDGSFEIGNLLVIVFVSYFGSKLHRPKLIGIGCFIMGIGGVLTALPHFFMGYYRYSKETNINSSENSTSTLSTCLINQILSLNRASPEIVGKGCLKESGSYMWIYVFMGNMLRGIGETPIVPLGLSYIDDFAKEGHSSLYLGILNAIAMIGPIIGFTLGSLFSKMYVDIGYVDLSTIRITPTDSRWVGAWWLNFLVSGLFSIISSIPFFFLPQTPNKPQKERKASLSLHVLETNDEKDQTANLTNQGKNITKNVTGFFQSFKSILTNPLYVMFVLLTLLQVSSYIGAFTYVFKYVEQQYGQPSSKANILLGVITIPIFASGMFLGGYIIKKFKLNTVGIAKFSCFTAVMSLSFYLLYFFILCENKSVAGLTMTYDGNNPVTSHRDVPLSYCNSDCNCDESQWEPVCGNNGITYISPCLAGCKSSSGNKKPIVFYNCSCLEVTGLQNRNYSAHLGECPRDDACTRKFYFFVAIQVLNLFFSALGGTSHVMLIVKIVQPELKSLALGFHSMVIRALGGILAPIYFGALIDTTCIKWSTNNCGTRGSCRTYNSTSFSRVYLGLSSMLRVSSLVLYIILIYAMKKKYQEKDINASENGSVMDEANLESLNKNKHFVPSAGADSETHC

OATP1B1 [4] = details: strong inhibitor of OATP1B1; cited from earlier work
[5] = format: in vivo, Human; details: single oral administrations on days −7, 1 and 14
BCRP [6] = details: cited from earlier work
OATP1B1/3 = details: in vitro, potent inhibitor; cited from earlier work
CYP2B6 [7] = details: in vitro hepatocyte assay, clinically relevant plasma concentrations; cited from earlier work
CYP2C19 = details: cited from earlier work
[8] = Phase 1 DDI study: plasma PK of encorafenib; format: in vivo; details: human, oral, GM (CV%); for AUC(0-t): AUClast
CYP2D6 = details: cited from earlier work
CYP3A4 = details: cited from earlier work
BCRP [9] = details: in vitro, weak inhibitor; cited from earlier work
CYP2B6 [10] = details: in vitro; cited from earlier work
[11] = cited from earlier work
[12] = system: OATP1B1, OATP1B3, and BCRP; format: in vivo, Human; details: phase 1 study and exploratory CP-I analysis

Q: With `CC(C)c1c(C(=O)Nc2ccccc2)c(-c2ccccc2)c(-c2ccc(F)cc2)n1CC[C@@H](O)C[C@@H](O)CC(=O)O` [Atorvastatin] as the compound, how does the “Risk category following coadministration with encorafenib” value [1] read?
A: The value was “at risk of loss of efficacy”.

Q: For `NC(=O)N1c2ccccc2C=Cc2ccccc21` [carbamazepine], which “Effect of treatment on bupropion and hydroxybupropion” value (CYP2B6 and CYP3A4) is on record?
A: Its value is “substantial decrease in bupropion and increase in hydroxybupropion”.

Q: Which “Risk category following coadministration with encorafenib” value [1] does the source give for `CC[C@H](C)C(=O)O[C@H]1C[C@@H](C)C=C2C=C[C@H](C)[C@H](CC[C@@H]3C[C@@H](O)CC(=O)O3)[C@H]21` [Lovastatin] here?
A: Its value is “at risk of loss of efficacy”.

Q: With `CC[C@H](C)C(=O)O[C@H]1C[C@H](O)C=C2C=C[C@H](C)[C@H](CC[C@@H](O)C[C@@H](O)CC(=O)O)[C@H]21` [Pravastatin] as the compound, how does the “Risk category following coadministration with encorafenib” value [1] read?
A: Its value is “least likely to be affected”.

Q: What does the source list for `CC(NC(C)(C)C)C(=O)c1cccc(Cl)c1` (centres unmarked) [Bupropion, bupropion]?
A: Decrease in AUClast compared with administration on its own (CYP2B6 [2]; following repeated doses of encorafenib and binimetinib): 26%; Decrease in AUClast compared with administration on its own (CYP2B6 [2]; following single dose of encorafenib and binimetinib): 23%

Q: For `O=C(O)C[C@H](O)C[C@H](O)/C=C/c1c(C2CC2)nc2ccccc2c1-c1ccc(F)cc1` [Pitavastatin], which “Risk category following coadministration with encorafenib” value [1] is on record?
A: The value was “highest risk of increased exposure”.

Q: Which results are given for Coproporphyrin I [CP-I]?
A: Observed maximum fold change in CP-I concentrations (OATP1B1 [3]; C1D1 (single dose), CRC patients): 1.4 fold; Observed maximum fold change in CP-I concentrations (OATP1B1 [3]; C2D1): 1.2 fold

Q: With `CO[C@H]1/C=C/O[C@@]2(C)Oc3c(C)c(O)c4c(O)c(c(/C=N/N5CCN(C)CC5)c(O)c4c3C2=O)NC(=O)/C(C)=C\C=C\[C@H](C)[C@H](O)[C@@H](C)[C@@H](O)[C@@H](C)[C@H](OC(C)=O)[C@@H]1C` [rifampin] as the compound, how does the “Plasma CP-I maximum fold-change” value (OATP1B1 [4]) read?
A: Its value is “approximately 6 fold”.

Q: With `CC(C)c1nc(N(C)S(C)(=O)=O)nc(-c2ccc(F)cc2)c1/C=C/[C@@H](O)C[C@@H](O)CC(=O)O` [Rosuvastatin, rosuvastatin] as the compound, how does the “Risk category following coadministration with encorafenib” value [1] read?
A: The value was “highest risk of increased exposure”.

Q: What about the “Tmax” value [5] of the same compound?
A: Its value is 2 h.

Q: And the “Theoretical maximum fold-change in exposure based on BCRP alone” value (BCRP [6])?
A: The value was 2 fold.

Q: Which results are given for `COC(=O)N[C@@H](C)CNc1nccc(-c2cn(C(C)C)nc2-c2cc(Cl)cc(NS(C)(=O)=O)c2F)n1` [Encorafenib, encorafenib]?
A: R values (inhibition) (OATP1B1/3): ≥ 1.1; R3 values (induction) (CYP2B6 [7]): < 0.9; Share of metabolism (CYP2C19): 16%; AUC(0-t) ([8]; encorafenib single dose (day 1)): 25900 ng·h/mL; AUC(0-t) ([8]; encorafenib steady state (day 14)): 13100 ng·h/mL; Cmax ([8]; Cmax, encorafenib steady state (day 14), n=10): 2940 ng/mL; Share of metabolism (CYP2D6): 1%; Clinical CYP2B6 inhibition (conclusion) (CYP2B6 [2]; bupropion probe, after a single dose of encorafenib): does not act as an inhibitor of CYP2B6; Clinical CYP2B6 induction (conclusion) (CYP2B6 [2]; bupropion probe, steady-state encorafenib): likely not a clinically relevant inducer of CYP2B6; Share of metabolism (CYP3A4): 83%; R values (inhibition) (BCRP [9]): ≥ 1.1; Unbound R1 value (reversible inhibition) (CYP2B6 [10]): 3.1; Steady-state exposure lower compared with exposure following a single dose ([11]; autoinduction of CYP3A4): approximately 50%; Estimated bioavailability ([11]; oral, no reference given): at least 86%; Time to peak concentrations ([11]; oral, no reference given): ≤ 2 h; Clinical BCRP inhibition (conclusion) [12]: likely an inhibitor of BCRP; Clinical OATP1B1/3 inhibition (conclusion) [12]: may also inhibit OATP1B1/3 to a lesser extent

Q: For `C[C@H]1NC(C)(C)CO[C@]1(O)c1cccc(Cl)c1` [Hydroxybupropion, hydroxybupropion], which “Change in AUClast” value (CYP2B6 [2]; following a single dose of encorafenib and binimetinib) is on record?
A: Its value is “not changed”.

Q: What about the “Increase in AUClast” value (CYP2B6 [2]; with repeated doses of encorafenib and binimetinib) of the same compound?
A: The value was 48%.
